Data: ChEMBL document CHEMBL1140676, “Evaluation of broad spectrum protein kinase inhibitors to probe the architecture of the malarial cyclin dependent protein kinase Pfmrk” (Bioorg Med Chem Lett, 2007)

Experiments:
Protein kinase Pfmrk = target: T1, Protein kinase Pfmrk (Plasmodium falciparum, UniProt P90584); assay: Inhibition of Plasmodium falciparum Pfmrk
T1 sequence (P90584 whole entry): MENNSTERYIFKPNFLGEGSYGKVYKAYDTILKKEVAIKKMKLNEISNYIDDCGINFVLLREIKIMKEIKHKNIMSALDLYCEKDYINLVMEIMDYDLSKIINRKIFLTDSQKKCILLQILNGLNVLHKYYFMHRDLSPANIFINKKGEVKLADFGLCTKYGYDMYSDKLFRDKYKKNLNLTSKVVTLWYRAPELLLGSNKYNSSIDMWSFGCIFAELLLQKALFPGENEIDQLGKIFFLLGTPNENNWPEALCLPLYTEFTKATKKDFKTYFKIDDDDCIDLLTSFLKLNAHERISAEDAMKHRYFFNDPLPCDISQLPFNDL

Plasmodium falciparum [1] = assay: Antimalarial activity against drug-resistant Plasmodium falciparum W2; type: functional, organism-based
Plasmodium falciparum [2] = assay: Antimalarial activity against drug-resistant Plasmodium falciparum D6; type: functional, organism-based

In the case of `NCCCCNS(=O)(=O)c1ccc2ccccc2c1`, the IC50 (Protein kinase Pfmrk) is reported as > 500 µM.
For `NCCCCCCNS(=O)(=O)c1cccc2c(Cl)cccc12`, the IC50 (Plasmodium falciparum [1]) was 15 µM, the IC50 (Plasmodium falciparum [2]) was 8.8 µM and the IC50 (Protein kinase Pfmrk) was > 500 µM.
For `C[C@H]1CNCCN1S(=O)(=O)c1cccc2cnccc12`, the IC50 (Plasmodium falciparum [1]) was 5.4 µM, the IC50 (Plasmodium falciparum [2]) was > 69 µM and the IC50 (Protein kinase Pfmrk) was > 500 µM.
In the case of `O=S(=O)(c1cccc2cnccc12)N1CCNCC1`, the IC50 (Plasmodium falciparum [1]) is reported as 4.3 µM, the IC50 (Plasmodium falciparum [2]) is reported as > 36 µM and the IC50 (Protein kinase Pfmrk) is reported as > 500 µM.
For `O=S(=O)(c1cccc2c(I)cccc12)N1CCCNCC1`, the IC50 (Protein kinase Pfmrk) was > 500 µM.
With `CNCCNS(=O)(=O)c1cccc2cnccc12` the IC50 (Plasmodium falciparum [1]) was > 37 µM, the IC50 (Plasmodium falciparum [2]) was > 74 µM and the IC50 (Protein kinase Pfmrk) was 70 µM.
With `NCCCCNS(=O)(=O)c1cccc2c(Cl)cccc12` the IC50 (Protein kinase Pfmrk) was > 500 µM.
In the case of `O=S(=O)(c1cccc2cnccc12)N1CCCNCC1` [FASUDIL], the IC50 (Protein kinase Pfmrk) is reported as > 500 µM.
In the case of `O=S(=O)(NCCNC/C=C/c1ccc(Br)cc1)c1cccc2cnccc12`, the IC50 (Plasmodium falciparum [1]) is reported as 2.1 µM, the IC50 (Plasmodium falciparum [2]) is reported as 4.8 µM and the IC50 (Protein kinase Pfmrk) is reported as > 500 µM.
For `NCCNS(=O)(=O)c1cccc2cnccc12`, the IC50 (Plasmodium falciparum [1]) was > 72 µM, the IC50 (Plasmodium falciparum [2]) was > 72 µM and the IC50 (Protein kinase Pfmrk) was 0.7 µM.
`O=S(=O)(c1cccc2c(Cl)cccc12)N1CCCNCC1` was tested, and the IC50 (Protein kinase Pfmrk) was > 500 µM.
For `N=C(N)NCCNS(=O)(=O)c1cccc2cnccc12`, the IC50 (Protein kinase Pfmrk) was > 500 µM.
